ChEMBL document CHEMBL1158262, “Novel beta-methoxyacrylates of the 9-methoxystrobilurin and oudesmansin classes produced by the basidiomycete Favolaschia pustulosa” (J Nat Prod, 1996)
pIC50: −log10 of the molar value. Values after ≈ are worked out from the molar mass of the structure shown. Active and inactive are the calls of the source. No cut-off for these calls is given here.

Tests used:
JIYOYE [1] = test: Cytotoxicity against human Jijoye cells after 2 days by XTT assay; type: functional, cell-based
JIYOYE [2] = test: Cytotoxicity against human Jijoye cells after 5 days by XTT assay; type: functional, cell-based; details: 120 h
Bacillus subtilis = test: Antibacterial activity against Bacillus subtilis after 18 hrs by serial dilution method; type: functional
Candida albicans = test: Antifungal activity against Candida albicans after 18 hrs by serial dilution method; type: functional

C=CC(C)(C)OC(C)(C)C1COc2ccc(/C=C/C(OC)=C(C)\C(=C/OC)C(=O)OC)cc2O1 (stereo not given) was tested, and the Activity (JIYOYE [1]) was “inactive”, the pIC50 (JIYOYE [2]) was 8.74 and the CC50 (JIYOYE [2]; read-out: LC50 (the source's name)) was 1.8 nM. For the same compound, the MIC (Bacillus subtilis) was 0.9 µM (≈ 0.425 µg/mL) and the MIC (Candida albicans) was 6 µM (≈ 2.84 µg/mL).
